Test results as given in US8163728B2, “Pyrazoles” (Hoffmann-La Roche Inc., priority 2009, dated 2012).

Molecular target: T1, GABA A α5 (Homo sapiens, UniProt P18507+P31644)
T1 construct: expressed in transfected cells; host or cells: HEK293 cells, transiently transfected; membranes prepared from cell pellets
Experiment: [3H]flumazenil competition binding, human GABA A α5β3γ2 receptors in HEK293 cell membranes
Conditions: human receptor α5β3γ2 transiently transfected in HEK293; 0.5 nM [3H]flumazenil; 1 hour at 4° C.; means of two determinations; read-out: hKi GABA A α5
Summary of the method: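 Competition with [3H]flumazenil for binding to membranes of HEK293 cells transiently expressing human α5β3γ2, in Krebs-tris buffer pH 7.5. Incubated to equilibrium 1 h at 4 °C, filtered and scintillation-counted; Ki values are means of two determinations.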

SMILES	Ki [nM]
CCCCc1noc(C)c1COc1cc(C(=O)NC2CCOC(C)(C)C2)[nH]n1 (racemic) [Example 37, Rac-5-(3-Butyl-5-methyl-isoxazol-4-ylmethoxy)-2H-pyrazole-3-carboxylic acid (2,2-dimethyl-tetrahydro-pyran-4-yl)-amide]	22
Cc1onc(-c2ccc(F)cc2)c1CNc1cc(C(=O)NC(C)CO)n(C)n1 (stereo not drawn) [Example 150, 5-{[3-(4-Fluoro-phenyl)-5-methyl-isoxazol-4-ylmethyl]-amino}-2-methyl-2H-pyrazole-3-carboxylic acid (2-hydroxy-1-methyl-ethyl)-amide]	26.2
Cc1onc(-c2ccc(F)cc2)c1COc1cc(C(N)=O)n(C)n1 [Example 54, 5-[3-(4-Fluoro-phenyl)-5-methyl-isoxazol-4-ylmethoxy]-2-methyl-2H-pyrazole-3-carboxylic acid amide]	12
Cc1onc(-c2ccccn2)c1COc1cc(C(=O)NC(C)C)n[nH]1 [Example 14, 5-(5-Methyl-3-pyridin-2-yl-isoxazol-4-ylmethoxy)-1H-pyrazole-3-carboxylic acid isopropylamide]	9.3
Cc1onc(-c2ccc(F)cc2)c1COc1cc(C(=O)NCC(O)C(F)(F)F)n(C)n1 (single isomer, unassigned; (+)) [Example 67, (+)-5-[3-(4-Fluoro-phenyl)-5-methyl-isoxazol-4-ylmethoxy]-2-methyl-2H-pyrazole-3-carboxylic acid ((S or R)-3,3,3-trifluoro-2-hydroxy-propyl)-amide or enantiomer]	2.4
Cc1onc(-c2ccccn2)c1COc1cc(C(=O)N[C@@H](C)CO)n[nH]1 [Example 16, 5-(5-Methyl-3-pyridin-2-yl-isoxazol-4-ylmethoxy)-1H-pyrazole-3-carboxylic acid ((S)-2-hydroxy-1-methyl-ethyl)-amide]	11.1
Cn1nc(OCc2c(-c3ccc(F)cc3)noc2CO)cc1C(N)=O [Example 93, 5-[3-(4-Fluoro-phenyl)-5-hydroxymethyl-isoxazol-4-ylmethoxy]-2-methyl-2H-pyrazole-3-carboxylic acid amide]	14.7
Cc1onc(-c2ccc(F)cc2)c1/C=C/c1cc(C(=O)N2CCOCC2)n(C)n1 [Example 129, (5-{(E)-2-[3-(4-Fluoro-phenyl)-5-methyl-isoxazol-4-yl]vinyl}-2-methyl-2H-pyrazol-3-yl)-morpholin-4-yl-methanone]	11.8
Cc1onc(-c2ccc(F)cc2)c1CNc1cc(C(=O)NC(C)CO)[nH]n1 (stereo not drawn) [Example 157, 5-{[3-(4-Fluoro-phenyl)-5-methyl-isoxazol-4-ylmethyl]-amino}-2H-pyrazole-3-carboxylic acid (2-hydroxy-1-methyl-ethyl)-amide]	51
Cc1onc(-c2ccc(F)cn2)c1COc1cc(C(=O)NN2CCOCC2)[nH]n1 [Example 23, 5-[3-(5-Fluoro-pyridin-2-yl)-5-methyl-isoxazol-4-ylmethoxy]-2H-pyrazole-3-carboxylic acid morpholin-4-ylamide]	1.9
CCCCc1noc(C)c1COc1cc(C(=O)NC2CCOC2)[nH]n1 (single isomer, unassigned; (-)) [Example 34, (−)-(S or R)-3-((3-Butyl-5-methylisoxazol-4-yl)methoxy)-N-(tetrahydrofuran-3-yl)-1H-pyrazole-5-carboxamide]	5.7
Cc1onc(-c2ccc(F)cc2)c1/C=C\c1cc(C(=O)NC(C)CO)n(C)n1 (stereo not drawn) [Example 121, 5-{(Z)-2-[3-(4-Fluoro-phenyl)-5-methyl-isoxazol-4-yl]vinyl}-2-methyl-2H-pyrazole-3-carboxylic acid (2-hydroxy-1-methyl-ethyl)-amide]	49.6
Cc1onc(-c2ccc(F)cc2)c1COc1cc(C(=O)NCC(O)C(F)(F)F)n(C)n1 (single isomer, unassigned; (-)) [Example 68, (−)-5-[3-(4-Fluoro-phenyl)-5-methyl-isoxazol-4-ylmethoxy]-2-methyl-2H-pyrazole-3-carboxylic acid ((R or S)-3,3,3-trifluoro-2-hydroxy-propyl)-amide or enantiomer]	5.3
Cc1onc(-c2ccc(F)cn2)c1COc1cc(C(=O)NCC(F)(F)F)[nH]n1 [Example 17, 5-[3-(5-Fluoro-pyridin-2-yl)-5-methyl-isoxazol-4-ylmethoxy]-2H-pyrazole-3-carboxylic acid (2,2,2-trifluoro-ethyl)-amide]	1.2
Cc1onc(-c2ccc(F)cc2)c1/C=C/c1cc(C(=O)N2CCS(=O)(=O)CC2)n(C)n1 [Example 127, (1,1-Dioxo-1,6-thiomorpholin-4-yl)-(5-{(E)-2-[3-(4-fluoro-phenyl)-5-methyl-isoxazol-4-yl]-vinyl}-2-methyl-2H-pyrazol-3-yl)-methanone]	29.3
Cc1onc(-c2ccc(F)cc2)c1/C=C/c1cc(C(=O)NC(C)(C)CO)n(C)n1 [Example 143, 5-{(E)-2-[3-(4-Fluoro-phenyl)-5-methyl-isoxazol-4-yl]vinyl}-2-methyl-2H-pyrazole-3-carboxylic acid (2-hydroxy-1,1-dimethyl-ethyl)-amide]	7.4
Cc1onc(-c2ccccc2)c1COc1cc(C(=O)NC(C)C)[nH]n1 [Example 2, 5-(5-Methyl-3-phenyl-isoxazol-4-ylmethoxy)-2H-pyrazole-3-carboxylic acid isopropylamide]	32.4
Cc1onc(-c2ccccc2)c1COc1cc(C(=O)NC2CCOCC2)[nH]n1 [Example 3, 5-(5-Methyl-3-phenyl-isoxazol-4-ylmethoxy)-2H-pyrazole-3-carboxylic acid (tetrahydro-pyran-4-yl)-amide]	3.1
Cc1onc(-c2ccc(F)cc2)c1CNc1cc(C(=O)N2CC3(COC3)C2)[nH]n1 [Example 158, (5-{[3-(4-Fluoro-phenyl)-5-methyl-isoxazol-4-ylmethyl]-amino}-2H-pyrazol-3-yl)-(2-oxa-6-aza-spiro[3.3]hept-6-yl)-methanone]	22
Cc1onc(-c2ccc(F)cc2)c1COc1cc(C(=O)NC2CCOCC2)n(C)n1 [Example 53, 5-[3-(4-Fluoro-phenyl)-5-methyl-isoxazol-4-ylmethoxy]-2-methyl-2H-pyrazole-3-carboxylic acid (tetrahydro-pyran-4-yl)-amide]	1.2
Cc1onc(-c2ccccn2)c1COc1cc(C(=O)NC(C)CO)nn1C (stereo in doubt) [Example 114, 1-Methyl-5-(5-methyl-3-pyridin-2-yl-isoxazol-4-ylmethoxy)-1H-pyrazole-3-carboxylic acid ((S)-2-hydroxy-1-methyl-ethyl)-amide]	16.2
Cc1onc(C2CCOCC2)c1COc1cc(C(=O)NC2CCOCC2)n(C)n1 [Example 90, 2-Methyl-5-[5-methyl-3-(tetrahydro-pyran-4-yl)-isoxazol-4-ylmethoxy]-2H-pyrazole-3-carboxylic acid (tetrahydro-pyran-4-yl)-amide]	24.4
CCNC(=O)c1cc(/C=C/c2c(-c3ccc(F)cc3)noc2C)nn1C [Example 123, 5-{(E)-2-[3-(4-Fluoro-phenyl)-5-methyl-isoxazol-4-yl]vinyl}-2-methyl-2H-pyrazole-3-carboxylic acid ethylamide]	1.3
Cc1onc(-c2ccc(F)cn2)c1COc1cc(C(=O)NC2CCOC2)n(C)n1 (racemic) [Example 81, Rac-5-[3-(5-fluoro-pyridin-2-yl)-5-methyl-isoxazol-4-ylmethoxy]-2-methyl-2H-pyrazole-3-carboxylic acid (tetrahydro-furan-3-yl)-amide]	5.9
